# Like-named read-outs stand apart in the source and are kept apart here.
# What was measured:
# [1] = system: HCT-15 (P glycoprotein (P-gp) expressing human colon cancer cell line); assay: Anti-cell activity (MTT) against human tumor cell line HCT-15; format: cell-based; conditions: 72 h, HCT-15 (P-gp expressing), cultured three days, read-out: HCT-15 (GI50 value, ng/mL)
# Method: (§1) Three types of human tumor cell lines (all of the cells were obtained from American Type Culture Collection) were seeded on 96-well microplates as follows.
# (§2) NCI-H460 (human lung cancer cell line): 5.0×10^2 cells/190 μL/well HCT-15 (P glycoprotein (P-gp) expressing human colon cancer cell line, J. Natl. Cancer Inst., 2001, 93:1234-1245): 1.0×10^3 cells/190 μL/well HCT116 (human colon cancer cell line): 1.0×10^3 cells/190 μL/well On the next day, each test compound was dissolved in 100% dimethyl sulfoxide (DMSO) at a concentration of 10 mg/mL. This solution was diluted with 0.01% Cremophor EL-PBS(−) (Cremophor EL: Sigma Chemical Co., St. Louis, Mo., USA, PBS: Invitrogen Corp., Carlsbad, Calif., USA), and 10 μL of the diluted solution was added to each well (final concentration: 100 to 0.000381 ng/mL). The cells were cultured for three days, and then […] of a 5 mg/mL solution of 3-(4,5-dimethylthiazol-2-yl)-2,5-diphenyl-2H-tetrazolium bromide (MTT, Sigma Chemical Co.) was added to each well. The cells were further cultured for 4 hours, and then the medium was removed by centrifugation. By adding 150 μL of DMSO to each well, the produced formazan product was dissolved. The absorbance of the solution was measured at 540 nm. The drug concentration suppressing cell proliferation of the drug addition group to 50% of the cell proliferation of the drug free group (GI50 value, ng/mL) was calculated, and used as an index of anti-cell activity.
# [2] = system: B16 melanoma BL6; assay: Antitumor effect in mice subcutaneously transplanted with B16 melanoma BL6; format: in vivo, Mice (C57BL/6); conditions: for Therapeutic index: MTD/MED; for Effective dose range: range from MED to MTD, antitumor effect of 58% or more considered effective
# Source text: (§3) Mice (C57BL/6, Charles River Japan) were subcutaneously transplanted with B16 melanoma BL6 (Cancer Res., Poste, G., Fidler, I. J. et al., 1980, 40:1636; Bioorg. Med. Chem. Lett., Takeda, Y. et al., 2003, 13:185-190), or M5076 (obtained from Japanese Foundation for Cancer Research), which is a histiocytoma expressing P-gp. Four days after the transplantation in the case of B16 melanoma BL6, or 8 to 10 days after the transplantation in the case of M5076, each test compound suspended in a 0.5% aqueous solution of carboxymethylcellulose sodium, or dissolved in EtOH:Tween 80:5% glucose=5:5:90 (v/v %) was orally (po) or intravenously (iv) administered to the mice. Ten days after the administration in the case of B16 melanoma BL6, or 8 to 10 days after the administration in the case of M5076, the mice were dissected, and tumor weights were measured. The antitumor effect was calculated in accordance with the following equation.
# (§4) [1−(Average tumor weight of compound administration group/average tumor weight of solvent administration group)]×100
# (§5) An antitumor effect of 58% or more was considered effective (Int. J. Cancer, 1989, 43:637-44), and the maximum tolerance dose (MTD, maximum dose not causing death, mg/kg) and minimum effective dose (MED, mg/kg) showing effectiveness were obtained, respectively. The therapeutic index was calculated in accordance with the equation: MTD/MED.
# (§6) ND means that the test was not performed. The effective dose range means the range of from MED to MTD.
# [3] = Solubility in first and second solution for disintegration test (Japanese Pharmacopoeia); format: physicochemical; conditions: for solubility: thermodynamic from solid
# Method: Solubility of each compound was determined in the first solution for disintegration test according to Japanese Pharmacopoeia (henceforth referred to as the first solution, solution obtained by adding 7 mL of hydrochloric acid and water to 2.00 g of sodium chloride to dissolve sodium chloride and fill up the solution to 1000 mL, pH 1.2) and the second solution for disintegration test according to Japanese Pharmacopoeia (henceforth referred to as the second solution, solution obtained by adding 118 mL of 0.2 mol/L solution of sodium hydroxide to 6.80 g of potassium dihydrogenphosphate, adding water to the mixture to dissolve potassium dihydrogenphosphate and filling up the solution to 1000 mL, pH 6.8).
# Each test compound was dissolved in 100% dimethyl sulfoxide (DMSO) at a concentration of 10 mM, and 50 μL of the solution was lyophilized. The lyophilized test compound was added with 250 μL of the first solution or second solution, and the mixture was stored at room temperature for 12 hours or longer under light shielding, and filtered (0.7 μm). The filtrate was taken in a volume of 90 μL, and added with 50% DMSO (90 μL) to obtain a two-fold diluted solubility sample. The two-fold dilution solubility sample was taken in a volume of 20 μL, and added with 50% DMSO (180 μL) to obtain a […] diluted solubility sample. Solubility of each test sample was determined by quantifying the test compound in the resulting diluted solubility test samples using high-performance liquid chromatography.
# [4] = system: M5076 (histiocytoma expressing P-gp); assay: Antitumor effect in mice subcutaneously transplanted with M5076; format: in vivo, Mice (C57BL/6); conditions: for Therapeutic index: MTD/MED; for Effective dose range: range from MED to MTD, antitumor effect of 58% or more considered effective
# Source text: as §3, §4, §5, §6
# [5] = system: NCI-H460 (human lung cancer cell line); assay: Anti-cell activity (MTT) against human tumor cell line NCI-H460; format: cell-based; conditions: 72 h, NCI-H460, cultured three days, read-out: NCI-H460 (GI50 value, ng/mL)
# Method: as §1, §2
# [6] = system: HCT116 (human colon cancer cell line); assay: Anti-cell activity (MTT) against human tumor cell line HCT116; format: cell-based; conditions: HCT-116, 72 h, HCT116, cultured three days, read-out: HCT116 (GI50 value, ng/mL)
# Method: as §1, §2
# [7] = pH 1.2, simulated gastric fluid
# [8] = aqueous buffer, second solution for disintegration test, pH 6.8, room temperature, 12 hours or longer, read-out: Solubility (μg/mL) pH 6.8
# [9] = simulated gastric fluid, first solution for disintegration test, pH 1.2, room temperature, 12 hours or longer, read-out: Solubility (μg/mL) pH 1.2
# [10] = first solution for disintegration test, pH 1.2, room temperature, 12 hours or longer
# [11] = second solution for disintegration test, pH 6.8, room temperature, 12 hours or longer
SMILES,GI50 [1] [ng/mL],"Therapeutic index ([2]; B16 Melanoma BL6, po)","solubility [3, 7] [µg/mL]","solubility ([3]; pH 6.8, aqueous buffer) [µg/mL]","Therapeutic index ([4]; M5076, po)","Effective dose range ([4]; M5076, po) [mg/kg]",GI50 [5] [ng/mL],GI50 [6] [ng/mL],"solubility [3, 8] [µg/mL]","solubility [3, 9] [µg/mL]","Therapeutic index ([2]; B16 Melanoma BL6, iv)","Effective dose range ([2]; B16 Melanoma BL6, iv) [mg/kg]","Effective dose range ([2]; B16 Melanoma BL6, po) [mg/kg]","Solubility (μg/mL) pH 1.2 [3, 10] [μg/mL]","Solubility (μg/mL) pH 6.8 [3, 11] [μg/mL]","Therapeutic index ([4]; M5076, iv)","Effective dose range ([4]; M5076, iv) [mg/kg]"
"CC(=O)O[C@@]12CO[C@@H]1CC[C@@]1(C)[C@@H]3O[C@H](CN4CC(O)C4)O[C@@H]3C3=C(C)[C@@H](OC(=O)[C@H](O)[C@@H](NC(=O)OC(C)(C)C)c4ncccc4F)C[C@@](O)([C@@H](OC(=O)c4ccccc4)[C@@H]12)C3(C)C [Example 6, (1S,2S,3R,4S,5R,8R,9S,10R,13S)-4-(Acetoxy)-2-(benzoyloxy)-5,20-epoxy-1-hydroxy-9,10-[(1S)-2-(3-hydroxyazetidino)ethylidenedioxy]tax-11-en-13-yl (2R,3S)-3-(tert-butoxycarbonylamino)-3-(3-fluoro-2-pyridyl)-2-hydroxypropionate]",7.94,4.2,690,87,2.0,18.6 to 38.0,0.172,0.183,,,,,,,,,
"CC(=O)O[C@@]12CO[C@@H]1CC[C@@]1(C)[C@@H]3O[C@H](CN4CC(O)C4)O[C@@H]3C3=C(C)[C@@H](OC(=O)[C@H](O)[C@@H](NC(=O)OC(C)(C)C)c4ccccn4)C[C@@](O)([C@@H](OC(=O)c4ccccc4)[C@@H]12)C3(C)C [Example 5, (1S,2S,3R,4S,5R,8R,9S,10R,13S)-4-(Acetoxy)-2-(benzoyloxy)-5,20-epoxy-1-hydroxy-9,10-[(1S)-2-(3-hydroxyazetidino)ethylidenedioxy]tax-11-en-13-yl (2R,3S)-3-(tert-butoxycarbonylamino)-2-hydroxy-3-(2-pyridyl)propionate]",8.08,6.0,,,1.0,30.0,0.162,0.229,140,1000,,,,,,,
"CC(=O)O[C@@]12CO[C@@H]1CC[C@@]1(C)[C@@H]3O[C@H](CN4CC(C)(O)C4)O[C@@H]3C3=C(C)[C@@H](OC(=O)[C@H](O)[C@@H](NC(=O)OC(C)(C)C)c4ccccn4)C[C@@](O)([C@@H](OC(=O)c4ccccc4)[C@@H]12)C3(C)C [Example 11, (1S,2S,3R,4S,5R,8R,9S,10R,13S)-4-(Acetoxy)-2-(benzoyloxy)-5,20-epoxy-1-hydroxy-9,10-[(1S)-2-(3-hydroxy-3-methylazetidino)ethylidenedioxy]tax-11-en-13-yl (2R,3S)-3-(tert-butoxycarbonylamino)-2-hydroxy-3-(2-pyridyl)propionate]",4.21,5.9,,,,,0.109,0.173,170,1300,,,,,,,
"CC(=O)O[C@@]12CO[C@@H]1CC[C@@]1(C)[C@@H]3O[C@H](CN4CCC4)O[C@@H]3C3=C(C)[C@@H](OC(=O)[C@H](O)[C@@H](NC(=O)OC(C)(C)C)c4ncco4)C[C@@](O)([C@@H](OC(=O)c4ccccc4)[C@@H]12)C3(C)C [Example 41, (1S,2S,3R,4S,5R,8R,9S,10R,13S)-4-(Acetoxy)-9,10-[(1S)-2-(azetidino)ethylidenedioxy]-2-(benzoyloxy)-5,20-epoxy-1-hydroxytax-11-en-13-yl (2R,3R)-3-(tert-butoxycarbonylamino)-2-hydroxy-3-(2-oxazolyl)propionate]",,2.9,,,,,,,,,4.2,5.29 to 22.0,8.58 to 25.0,910,370,1.4,17.5 to 25.0
"CC(=O)O[C@@]12CO[C@@H]1CC[C@@]1(C)[C@@H]3O[C@H](CN4CCC4)O[C@@H]3C3=C(C)[C@@H](OC(=O)[C@H](O)[C@@H](NC(=O)OC(C)(C)C)c4ccccn4)C[C@@](O)([C@@H](OC(=O)c4ccccc4)[C@@H]12)C3(C)C [Example 1, (1S,2S,3R,4S,5R,8R,9S,10R,13S)-4-(Acetoxy)-9,10-[(1S)-2-(azetidino)ethylidenedioxy]-2-(benzoyloxy)-5,20-epoxy-1-hydroxytax-11-en-13-yl (2R,3S)-3-(tert-butoxycarbonylamino)-2-hydroxy-3-(2-pyridyl)propionate]",1.14,2.9,,,,,0.19,0.244,170,1200,,,,,,,
"CC[C@H](NC(=O)OC(C)(C)C)[C@@H](O)C(=O)O[C@H]1C[C@@]2(O)[C@@H](OC(=O)c3ccccc3)[C@H]3[C@@](C)(CC[C@H]4OC[C@]43OC(C)=O)[C@@H]3O[C@H](CN4CCC4)O[C@@H]3C(=C1C)C2(C)C [Example 37, (1S,2S,3R,4S,5R,8R,9S,10R,13S)-4-(Acetoxy)-9,10-[(1S)-2-(azetidino)ethylidenedioxy]-2-(benzoyloxy)-5,20-epoxy-1-hydroxy-tax-11-en-13-yl (2R,3S)-3-(tert-butoxycarbonylamino)-2-hydroxypentanoate]",,2.0,,,,,,,,,4.2,7.21 to 30.0,14.7 to 30.0,670,210,1.4,14.7 to 21.0
"CC(=O)O[C@H]1C(=O)[C@@]2(C)[C@H]([C@H](OC(=O)c3ccccc3)[C@]3(O)C[C@H](OC(=O)[C@H](O)[C@@H](NC(=O)c4ccccc4)c4ccccc4)C(C)=C1C3(C)C)[C@]1(OC(C)=O)CO[C@@H]1C[C@@H]2O [Paclitaxel, reference compound]",> 100,,< 4,< 4,,,1.87,1.71,,,,,,,,,

# From patent US20090186868A1, “Taxane Compound Having Azetidine Ring Structure” (Daiichi Sankyo Company Limited, priority 2005, published 2009)
